Test results reported in US11040028B2, “Penicinotam derivative, preparation method and use thereof” (OCEAN UNIVERSITY OF CHINA, priority 2017, dated 2021).

Experiments:
Format in all cases: cell-based
BHK-21 cells = assay: Anti-fibrosis activity test: inhibition of BHK-21 cell proliferation (CCK-8); conditions: Mesocricetus auratus, BHK-21, 48 h
Method in brief: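 Cells seeded at 2×10^4 cells/mL, allowed to adhere 24 hours, then exposed to graded compound concentrations in triplicate for 48 hours at 37° C, 5% CO2. CCK-8 added for 2 hours, absorbance read at 450 nm; inhibition versus blank control used to derive IC50. Pirfenidone served as positive control.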

[1] = test system: human lung fibroblasts HFL1; assay: Anti-fibrosis activity test: inhibition of proliferation of human lung fibroblasts HFL1 (CCK-8); conditions: Homo sapiens, HFL1, 48 h
Method in brief: (§1)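 Proliferation read by CCK-8 (2 h, A450) after 48 h compound treatment of cells plated at 2×10^4 cells/mL and allowed 24 h attachment, triplicate per concentration. Inhibition rate derived from absorbance relative to untreated blank, with IC50 fitted; pirfenidone as positive control.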

[2] = test system: human hepatic stellate cells LX-2; assay: Anti-fibrosis activity test: inhibition of proliferation of human hepatic stellate cells LX-2 (CCK-8); conditions: Homo sapiens, 48 h
Method in brief: as §1

[3] = test system: human fibrosarcoma cells HT-1080; assay: Anti-fibrosis activity test: inhibition of proliferation of human fibrosarcoma cells HT-1080 (CCK-8); conditions: Homo sapiens, HT-1080, 48 h
Method in brief: as §1

[4] = test system: human dermal fibroblasts CCC-ESF-1; assay: Anti-fibrosis activity test: inhibition of proliferation of human dermal fibroblasts CCC-ESF-1 (CCK-8); conditions: Fibroblast
Method in brief: as §1

[5] = test system: human embryonic lung fibroblast IMR-90; assay: Anti-fibrosis activity test: inhibition of proliferation of human embryonic lung fibroblast IMR-90 (CCK-8)
Method in brief: as §1

[6] = test system: cardiac fibroblast RAT-iCell-C002; assay: Anti-fibrosis activity test: inhibition of proliferation of cardiac fibroblast RAT-iCell-C002 (CCK-8); conditions: Cardiac fibroblast, 48 h
Method in brief: as §1

NF-κB = assay: Immunological activity test: inhibition of NF-κB activity; conditions: initial concentration of 30 μM; a/b isomers given as first/second symbol; read-out: IC50 (μM), inhibitory activity against NF-κB
Method in brief: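 IC50 values were derived after initial screening of compounds at 30 μM for NF-κB inhibitory activity, with parthenolide serving as the positive control.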

[7] = test system: mouse macrophages (RAW264.7); assay: Lipopolysaccharide-induced NO secretion in macrophages (Griess); conditions: Mus musculus, RAW264.7, 24 h, RAW264.7, LPS 1 μg/ml, a/b isomers given as first/second symbol, read-out: IC50 (μM), inhibition of lipopolysaccharide-induced NO secretion in macrophages
Method in brief: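 Percent inhibition of NO release was measured by Griess absorbance at 548 nm in supernatants. Cells were mouse RAW264.7 macrophages in 10% FBS DMEM, treated with graded compound concentrations and activated by LPS (1 μg/ml) for 24 h.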

[8] = CCK-8, 48 hours after administration
[9] = human lung fibroblasts HFL1, CCK-8, 48 hours
[10] = human hepatic stellate cells LX-2, CCK-8, 48 hours
[11] = human fibrosarcoma cells HT-1080, CCK-8, 48 hours
[12] = human dermal fibroblasts CCC-ESF-1, CCK-8, 48 hours
[13] = human embryonic lung fibroblast IMR-90, CCK-8, 48 hours
[14] = cardiac fibroblast RAT-iCell-C002, CCK-8, 48 hours
[15] = Homo sapiens, CCC-ESF-1 cells, 48 h, CCK-8
[16] = Homo sapiens, IMR-90 cells, 48 h, CCK-8

Row | SMILES | IC50 [3, 11] [mM] | IC50 (NF-κB) [µM] | IC50 [7] [µM] | IC50 ([3]; HT-1080 cells, 48 h, CCK-8) [mM] | IC50 (BHK-21 cells; [8]) [mM] | IC50 [1, 9] [mM] | IC50 [2, 10] [mM] | IC50 [4, 12] [mM] | IC50 [5, 13] [mM] | IC50 [6, 14] [mM] | IC50 (BHK-21 cells; 48 h, CCK-8) [mM] | IC50 ([1]; HFL1 cells, 48 h, CCK-8) [mM] | IC50 ([2]; LX-2, 48 h, LX-2 cells, CCK-8) [mM] | IC50 [4, 15] [mM] | IC50 [5, 16] [mM] | IC50 ([6]; RAT-iCell-C002 cells, CCK-8) [mM]
1 | O=C1c2c(nc3ccccc3c2OCc2ccc(F)cc2Cl)-c2cccn21 [Compound 572b, 9-((2-chloro-4-fluorobenzyl)oxy)-10H-pyrrolizino[1,2-b]quinolin-10-one] | 0.05 to 5 | 1 to 10 | 1 to 10 | – | 0.05 to 5 | 0.05 to 5 | 0.05 to 5 | 0.05 to 5 | 0.05 to 5 | 0.05 to 5 | – | – | – | – | – | –
2 | O=C1c2c([nH]c3c(O)cccc3c2=O)-c2cccn21 [Compound 445a, 5-Hydroxy-9H-pyrrolizino[1,2-b]quinoline-9,10(4H)-dione] | 0.05 to 5 | 1 to 10 | 1 to 10 | – | 0.05 to 5 | 0.05 to 5 | 0.05 to 5 | 0.05 to 5 | 0.05 to 5 | 0.05 to 5 | – | – | – | – | – | –
3 | O=C(O)Cn1c2c(c(=O)c3ccccc31)C(=O)n1cccc1-2 [Compound 100a, 2-(9,10-Dioxo-9H-pyrrolizino[1,2-b]quinolin-4(10H)-yl)acetic acid] | 0.05 to 5 | 1 to 10 | 0.1 to 1 | – | 0.05 to 5 | < 0.05 | 0.05 to 5 | 0.05 to 5 | 0.05 to 5 | 0.05 to 5 | – | – | – | – | – | –
4 | CC(C)=CCn1c2c(c(=O)c3cc(F)ccc31)C(=O)n1cccc1-2 [Compound 112a, 7-Fluoro-4-(3-methylbut-2-en-1-yl)-9H-pyrrolizino[1,2-b]quinoline-9,10(4H)-dione] | 0.05 to 5 | 10 to 50 | 1 to 10 | – | 5 to 20 | 0.05 to 5 | 0.05 to 5 | 0.05 to 5 | 0.05 to 5 | 0.05 to 5 | – | – | – | – | – | –
5 | O=C1c2c(nc3cc(F)ccc3c2O)-c2cccn21 [Compound 488b, 6-fluoro-9-hydroxy-10H-pyrrolizino[1,2-b]quinolin-10-one] | 0.05 to 5 | 10 to 50 | 1 to 10 | – | 0.05 to 5 | 0.05 to 5 | 0.05 to 5 | 0.05 to 5 | 0.05 to 5 | 0.05 to 5 | – | – | – | – | – | –
6 | O=C1c2c(nc3ccccc3c2OCc2ccc(Cl)cc2)-c2cccn21 [Compound 589b, 9-((4-chlorobenzyl)oxy)-10H-pyrrolizino[1,2-b]quinolin-10-one] | < 0.05 | 1 to 10 | 1 to 10 | – | 0.05 to 5 | 0.05 to 5 | < 0.05 | 0.05 to 5 | 0.05 to 5 | 0.05 to 5 | – | – | – | – | – | –
7 | CCOC(=O)COc1c2c(nc3ccccc13)-c1cccn1C2=O [Compound 654b, ethyl 2-((10-oxo-10H-pyrrolizino[1,2-b]quinolin-9-yl)oxy)acetate] | 0.05 to 5 | 1 to 10 | 1 to 10 | – | 0.05 to 5 | 0.05 to 5 | 0.05 to 5 | < 0.05 | 0.05 to 5 | 0.05 to 5 | – | – | – | – | – | –
8 | COCCn1c2c(c(=O)c3ccccc31)C(=O)n1cccc1-2 [Compound 652a, 4-(2-Methoxyethyl)-9H-pyrrolizino[1,2-b]quinoline-9,10(4H)-dione] | 0.05 to 5 | 1 to 10 | 1 to 10 | – | 0.05 to 5 | 0.05 to 5 | 0.05 to 5 | 0.05 to 5 | 0.05 to 5 | 0.05 to 5 | – | – | – | – | – | –
9 | Cc1ccc2n1C(=O)c1nc3ccccc3c(O)c1-2 [Compound 799b, 11-hydroxy-3-methyl-5H-pyrrolizino[2,1-b]quinolin-5-one] | – | 1 to 10 | 1 to 10 | 0.05 to 5 | – | – | – | – | – | – | 0.05 to 5 | 0.05 to 5 | 0.05 to 5 | 0.05 to 5 | 0.05 to 5 | 0.05 to 5
10 | N#Cc1cccc(Cn2c3c(c(=O)c4ccccc42)C(=O)n2cccc2-3)c1 [Compound 597a, 3-((9,10-Dioxo-9H-pyrrolizino[1,2-b]quinolin-4(10H)-yl)methyl)benzonitrile] | 0.05 to 5 | 1 to 10 | 1 to 10 | – | 0.05 to 5 | 0.05 to 5 | 0.05 to 5 | 0.05 to 5 | 0.05 to 5 | 0.05 to 5 | – | – | – | – | – | –
11 | O=C1c2c(nc3ccccc3c2OCc2ccc(F)cc2)-c2cccn21 [Compound 588b, 9-((4-fluorobenzyl)oxy)-10H-pyrrolizino[1,2-b]quinolin-10-one] | 0.05 to 5 | 1 to 10 | 1 to 10 | – | 0.05 to 5 | 0.05 to 5 | 0.05 to 5 | 0.05 to 5 | 0.05 to 5 | 0.05 to 5 | – | – | – | – | – | –

The next lines start with results.

Row | IC50 [3, 11] [mM] | IC50 (NF-κB) [µM] | IC50 [7] [µM] | IC50 ([3]; HT-1080 cells, 48 h, CCK-8) [mM] | SMILES | IC50 (BHK-21 cells; [8]) [mM] | IC50 [1, 9] [mM] | IC50 [2, 10] [mM] | IC50 [4, 12] [mM] | IC50 [5, 13] [mM] | IC50 [6, 14] [mM] | IC50 (BHK-21 cells; 48 h, CCK-8) [mM] | IC50 ([1]; HFL1 cells, 48 h, CCK-8) [mM] | IC50 ([2]; LX-2, 48 h, LX-2 cells, CCK-8) [mM] | IC50 [4, 15] [mM] | IC50 [5, 16] [mM] | IC50 ([6]; RAT-iCell-C002 cells, CCK-8) [mM]
12 | 0.05 to 5 | 1 to 10 | 0.1 to 1 | – | Cc1cccc(Cn2c3c(c(=O)c4ccccc42)C(=O)n2cccc2-3)c1 [Compound 609a, 4-(3-Methylbenzyl)-9H-pyrrolizino[1,2-b]quinoline-9,10(4H)-dione] | 0.05 to 5 | 0.05 to 5 | 0.05 to 5 | 0.05 to 5 | 0.05 to 5 | 0.05 to 5 | – | – | – | – | – | –
13 | 0.05 to 5 | 1 to 10 | 0.1 to 1 | – | O=C1c2c(n(Cc3ccccc3)c3ccccc3c2=O)-c2cccn21 [Compound 103a, 4-Benzyl-9H-pyrrolizino[1,2-b]quinoline-9,10(4H)-dione] | 0.05 to 5 | 0.05 to 5 | 0.05 to 5 | 0.05 to 5 | < 0.05 | 0.05 to 5 | – | – | – | – | – | –
14 | 0.05 to 5 | 1 to 10 | 0.1 to 1 | – | O=C(Cn1c2c(c(=O)c3ccccc31)C(=O)n1cccc1-2)c1ccc(Cl)cc1 [Compound 90a, 4-(2-(4-Chlorophenyl)-2-oxoethyl)-9H-pyrrolizino[1,2-b]quinoline-9,10(4H)-dione] | 0.05 to 5 | 0.05 to 5 | < 0.05 | 0.05 to 5 | 0.05 to 5 | 0.05 to 5 | – | – | – | – | – | –
15 | 0.05 to 5 | 1 to 10 | 1 to 10 | – | O=C1c2c(nc3ccccc3c2OCc2ccc(Br)cc2F)-c2cccn21 [Compound 606b, 9-((4-bromo-2-fluorobenzyl)oxy)-10H-pyrrolizino[1,2-b]quinolin-10-one] | 0.05 to 5 | 0.05 to 5 | 0.05 to 5 | 0.05 to 5 | 0.05 to 5 | 0.05 to 5 | – | – | – | – | – | –
16 | 0.05 to 5 | 1 to 10 | 1 to 10 | – | CN(C)CCOc1c2c(nc3ccccc13)-c1cccn1C2=O [Compound 12b, 9-(2-(dimethylamino)ethoxy)-10H-pyrrolizino[1,2-b]quinolin-10-one] | 0.05 to 5 | 0.05 to 5 | 0.05 to 5 | 0.05 to 5 | 0.05 to 5 | 0.05 to 5 | – | – | – | – | – | –
17 | 0.05 to 5 | 1 to 10 | 1 to 10 | – | O=C1c2c(nc3ccccc3c2OCc2ccccc2Cl)-c2cccn21 [Compound 600b, 9-((2-chlorobenzyl)oxy)-10H-pyrrolizino[1,2-b]quinolin-10-one] | 0.05 to 5 | 0.05 to 5 | 0.05 to 5 | 0.05 to 5 | 0.05 to 5 | 0.05 to 5 | – | – | – | – | – | –
18 | – | 1 to 10 | 10 to 50 | 0.05 to 5 | O=C1c2c(c(=O)c3ccccc3n2CCCN2CCOCC2)-c2cccn21 [Compound 787a, 6-(3-Morpholinopropyl)-5H-pyrrolizino[2,1-b]quinoline-5,11(6H)-dione] | – | – | – | – | – | – | 0.05 to 5 | 0.05 to 5 | 0.05 to 5 | 0.05 to 5 | 0.05 to 5 | 0.05 to 5
